Data from patent US10828279B2, “Prophylactic and/or therapeutic drug for diabetic nephropathy” (HuBit genomix, Inc., priority 2018, dated 2020).

Tests used:
[1] = tested on: UUO mice; test: Unilateral ureter obstruction (UUO) mouse renal tubulointerstitial fibrosis model, Sirius Red staining; format: in vivo; conditions: UUO+Palo vs UUO; palovarotene 1 mg/kg i.p. for 6 days, day 7 after ureter ligation
Protocol: Unilateral ureter obstruction (UUO) model is a model in which renal interstitial fibrosis is induced by feeding for seven days under ureter ligation. Briefly, the kidney of a mouse is exposed extraperitoneally by a unilateral dorsal incision. Then, ureter ligation is performed at 2 to 3 spots at intervals of 1 mm with surgical suture, which leads to decreased renal blood flow and glomerular filtration rate. Further, macrophages infiltrate into the tubulointerstitium, apoptosis of tubular epithelial cells occurs, and increase of fibroblasts and extracellular matrix protein progresses in the interstitium, which leads to interstitial fibrosis. In this model, fibrosis is evoked in a short period of time and there is no complication of uremia since no toxic substance is used. Thus, this is an interstitial fibrosis model with high reproducibility. A UUO model was established using 10-12 week-old ICR mice (purchased from CLEA Japan). […] UUO group consists of mice which were kept for 7 days under ureter ligation to thereby induce renal interstitial fibrosis. Palovarotene group consists of mice which received intraperitoneal administration of palovarotene (1 mg/kg) for 6 consecutive days starting from one day after UUO treatment. Mice in each group were dissected 7 days after UUO treatment, followed by histological evaluation of the kidney by Sirius Red staining.

[2] = tested on: BMP4; test: RT-quantitative PCR of BMP4 mRNA expression in AGE-stimulated cultured mouse mesangial cells; format: cell-based; conditions: for BMP4 (%): relative value, AGE 300 μg/ml+Palovarotene 0.5 μM = 100%
Protocol: (§1) The glomeruli were isolated from four-week-old wild-type C57BL/6J mice according to the method of Davies M. et al. (Kidney Int. 1994; 45(2):320-7)^36 with necessary modifications and primary culture of the glomeruli was conducted in order to establish mouse mesangial cell strains. AGEs used for cell stimulation were prepared according to the method of Doi T. et al. (Proc, Natl. Acad. Sci. U.S.A. 1992; 89:2873-2877)^37 with necessary modifications. The cultured mouse mesangial cells were grown to confluence, subjected to serum starvation using Opti-MEM (Invitrogen). Then, the cells were treated with (1) no stimulation, (2) AGE 300 μg/ml; (3) AGE 300 μg/ml+palovarotene 0.5 μM; or (4) AGE 300 μg/ml+palovarotene 1 μM. Twenty-four hours after the treatment, RNA extraction was performed by AGPC method. RT-quantitative PCR was performed with the resultant RNA, followed by evaluation of mRNA expression levels by the comparative Ct method (ΔΔ Ct method).

[3] = tested on: TGF-β1; test: RT-quantitative PCR of TGF-β1 mRNA expression in AGE-stimulated cultured mouse mesangial cells; format: cell-based; conditions: for TGF-β1 (%): relative value, AGE 300 μg/ml+Palovarotene 0.5 μM = 100%
Protocol: as §1

[4] = tested on: streptozocin-induced diabetic mice; test: Histological evaluation of the kidney in STZ-induced diabetic mice on high fat diet; format: in vivo, mouse; conditions: DM+Palo vs DM; palovarotene 60 μg/kg i.p. twice a week, 12 weeks
Protocol: Streptozocin (Wako) was administered to 12-15 week-old ICR mice (purchased from CLEA Japan) intraperitoneally (I.P.) for five consecutive days at 50 mg/kg per injection to thereby evoke diabetes. Four weeks after the STZ administration, mouse diet was changed to a high fat diet HFD60 (Oriental Yeast) and, at the same time, intraperitoneal administration of palovarotene at 60 μg/kg twice a week was started. Twelve weeks later, the mice were dissected, followed by histological evaluation.

[5] = tested on: Col4α1 (type IV collagen); test: RT-quantitative PCR of Col4α1 (type IV collagen) mRNA expression in AGE-stimulated cultured mouse mesangial cells; format: cell-based; conditions: for Col4α1 (%): relative value, AGE 300 μg/ml+Palovarotene 0.5 μM = 100%
Protocol: as §1

[6] = AGE 300 μg/ml + compound 0.5 μM, 24 h
[7] = AGE 300 μg/ml + compound 1.0 μM, 24 h
[8] = Example 4, 0.5 and 1.0 μM, AGE 300 μg/ml, comparison with palovarotene

CC1(C)CCC(C)(C)c2cc(Cn3cccn3)c(/C=C/c3ccc(C(=O)O)cc3)cc21 [Palovarotene, 4-[(E)-2-[5,5,8,8-tetramethyl-3-(pyrazol-1-ylmethyl)-6,7-dihydronaphthalen-2-yl]ethenyl]benzoic acid]
degree of staining of the tubulointerstitium with Sirius Red [1]: clearly lower than that in the kidney tissue of UUO mice | tubulointerstitial fibrosis [1]: markedly inhibits | BMP4 (%) [2, 6]: 100% | BMP4 (%) [2, 7]: 60% | BMP4 expression increased by AGE stimulation ([2]; AGE 300 μg/ml + palovarotene 0.5 or 1 μM, 24 h, FIG. 2B): clearly inhibited by palovarotene in a dose dependent manner | inhibitory effect on BMP4 expression (in words) [2, 8]: dose-dependent inhibitory effect | inhibition of BMP4 expression increased by AGE stimulation ([2]; palovarotene 1 μM, AGE 300 μg/ml, 24 h, FIG. 2B): almost complete | TGF-β1 (%) [3, 6]: 100% | TGF-β1 (%) [3, 7]: 70% | TGF-β expression increased by AGE stimulation ([3]; AGE 300 μg/ml + palovarotene 0.5 or 1 μM, 24 h, FIG. 2A): strongly inhibited | inhibitory effect on TGF-01 expression (in words) [3, 8]: dose-dependent inhibitory effect | Smad1 activation (pSmad1) [4]: inhibition of Smd1 activation | WT1 expressed in the podocyte nuclei (WT1) [4]: inhibition of reduction of WT1 | expansion of the glomerular mesangial area (PAS staining) [4]: inhibition of expansion of the glomerular mesangial area | nephrin-expressing area in glomerular podocytes (Nephrin) [4]: inhibition of reduction of nephrin-expressing area | phosphorylation of Smad2/3 [4]: strongly inhibited | type IV collagen expression (Col4) [4]: reduction of type IV collagen expression | Col4α1 (%) [5, 6]: 100% | Col4α1 (%) [5, 7]: 50% | inhibitory effect on Col4α1 (type IV collagen) expression (in words) [5, 8]: dose-dependent inhibitory effect | production of Col4α1 (type IV collagen) increased by AGE stimulation ([5]; palovarotene 0.5 μM, AGE 300 μg/ml, 24 h, FIG. 2C): completely inhibited
